Among the data in US20240034727A1, “IMIDAZOLE COMPOUNDS AS INHIBITORS OF ENPP1” (STINGRAY THERAPEUTICS, INC., priority 2020, published 2024) are IC50 values, retold here.

The test deals with Recombinant Human ENPP-1 Protein (Homo sapiens (Human), UniProt P22413). The test can be described thus: ENPP1 Inhibition Assay. The test is classed as biochemical. The conditions noted are these: substrate Thymidine 5′-monophosphate p-nitrophenol ester; pH 9.0; 37° C. for 45 minutes; absorbance at 405 nm. Here is the method:
Assay Buffer: 1 mM CaCl2), 0.2 mM ZnCl2, 50 mM Tris, pH 9.0. Substrate: 8 mM Thymidine 5′-monophosphate p-nitrophenol ester sodium salt (Sigma Cat #T4510). Enzyme: […] Recombinant Human ENPP-1 Protein (R&D Cat #6136-EN-010) in DMSO in 96-well clear assay plates.
An eight point serial dilution of drugs was prepared in 10× in assay buffer with the final assay concentrations starting at 10 μM, 3 μM, 1 μM, 0.3 μM and 0 μM. A dilution of DMSO was included as a control. The assay plate was set up as follows with each well in duplicate: 81 μL assay buffer+10 μL ENPP1 inhibitor or DMSO+5 μL Substrate+4 μL Enzyme. Both the enzyme and substrate was added to opposite sides of the well to ensure that there was no interaction until all wells had both components. The plate was then centrifuged gently for 10 seconds, followed by an incubation at 37° C. for 45 minutes. The reaction was quantified by measuring absorbance at 405 nm using the Envision.
IC50 values are determined using GraphPad Prism 5 software. The data were entered as an X-Y plot into the software as percent inhibition for each concentration of the drug. The concentration values of the drug were log transformed and the nonlinear regression was carried out using the “sigmoidal dose-response (variable slope)” option within the GraphPad software to model the data and calculate IC50 values. The IC50 values reported are the concentration of drug at which 50% inhibition was reached.

Recombinant Human ENPP-1 Protein, sequence (P22413 whole entry): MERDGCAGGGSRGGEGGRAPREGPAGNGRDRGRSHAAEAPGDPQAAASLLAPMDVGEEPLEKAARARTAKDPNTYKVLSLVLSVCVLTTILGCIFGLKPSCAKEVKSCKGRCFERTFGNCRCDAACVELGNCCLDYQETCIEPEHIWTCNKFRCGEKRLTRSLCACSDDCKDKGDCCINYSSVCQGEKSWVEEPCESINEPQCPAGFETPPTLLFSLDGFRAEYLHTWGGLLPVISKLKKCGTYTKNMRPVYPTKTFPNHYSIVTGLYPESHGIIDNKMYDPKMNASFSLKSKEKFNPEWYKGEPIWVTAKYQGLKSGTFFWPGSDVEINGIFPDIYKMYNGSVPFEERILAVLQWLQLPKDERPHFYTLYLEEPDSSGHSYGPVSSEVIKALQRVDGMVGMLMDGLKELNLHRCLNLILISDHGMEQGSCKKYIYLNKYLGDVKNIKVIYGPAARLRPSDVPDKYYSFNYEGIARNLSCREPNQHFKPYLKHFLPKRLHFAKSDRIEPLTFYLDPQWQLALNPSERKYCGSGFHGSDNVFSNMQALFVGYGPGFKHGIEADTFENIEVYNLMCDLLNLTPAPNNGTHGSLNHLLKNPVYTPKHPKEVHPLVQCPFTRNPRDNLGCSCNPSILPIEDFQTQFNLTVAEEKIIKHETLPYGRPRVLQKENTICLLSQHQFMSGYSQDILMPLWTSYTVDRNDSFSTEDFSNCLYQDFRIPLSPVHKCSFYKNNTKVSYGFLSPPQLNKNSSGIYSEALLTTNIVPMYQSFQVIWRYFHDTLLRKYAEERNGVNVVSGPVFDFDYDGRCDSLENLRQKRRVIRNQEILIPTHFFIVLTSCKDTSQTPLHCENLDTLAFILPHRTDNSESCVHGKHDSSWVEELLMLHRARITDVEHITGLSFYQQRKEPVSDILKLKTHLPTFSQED

Usually IC50 stands for the concentration that inhibits the measured activity by half. In the case of `COc1ccc(Oc2ccc(NC(=O)CSc3nc(C(=O)O)c[nH]3)cc2)cc1` [Compound I-16, 2-((2-((4-(4-methoxyphenoxy)phenyl)amino)-2-oxoethyl)thio)-1H-imidazole-4-carboxylic acid], the 50% inhibitory concentration (IC50) was 0.2 to 10 µM.

Consider `Cc1ccc(F)c(NC(=O)CSc2nc(C(=O)O)c[nH]2)c1` [Compound I-17, 2-((2-((2-fluoro-5-methylphenyl)amino)-2-oxoethyl)thio)-1H-imidazole-4-carboxylic acid], for which the half-inhibitory concentration (IC50) was over 10 µM.

For the molecule `O=C(CSc1nc(C(=O)O)c[nH]1)Nc1ccc(Cl)cc1` [Compound I-20, 2-((2-((4-chlorophenyl)amino)-2-oxoethyl)thio)-1H-imidazole-4-carboxylic acid], the IC50 lay within 0.2 to 10 µM.

As to `COc1ccc(NC(=O)CSc2nc(C#N)c[nH]2)cc1OC` [Compound I-4, 2-((4-cyano-1H-imidazol-2-yl)thio)-N-(3,4-dimethoxyphenyl)acetamide], the IC50 is under 0.2 µM.

Turning to `COc1ccc(NC(=O)CSc2nc(C(=O)O)c[nH]2)cc1F` [Compound I-10, 2-((2-((3-fluoro-4-methoxyphenyl)amino)-2-oxoethyl)thio)-1H-imidazole-4-carboxylic acid], the IC50 is under 0.2 µM.

As for `COc1ccc(NC(=O)CSc2nc(C(=O)OCCN(C)C)c[nH]2)cc1OC` [Compound I-29, 2-(dimethylamino)ethyl 2-((2-((3,4-dimethoxyphenyl)amino)-2-oxoethyl)thio)-1H-imidazole-4-carboxylate], the 50% inhibitory concentration (IC50) lay in the range of 0.2 to 10 µM.

As to `O=C(CSc1nc(C(=O)O)c[nH]1)Nc1ccc(Cl)cc1F` [Compound I-7, 2-((2-((4-chloro-2-fluorophenyl)amino)-2-oxoethyl)thio)-1H-imidazole-4-carboxylic acid], the half-maximal inhibitory concentration (IC50) was in the range of 0.2 to 10 µM.

As to `COc1ccc(CNC(=O)CSc2nc(C(=O)O)c[nH]2)c(OC)c1` [Compound I-15, 2-((2-((2,4-dimethoxybenzyl)amino)-2-oxoethyl)thio)-1H-imidazole-4-carboxylic acid], the half-maximal inhibitory concentration (IC50) is over 10 µM.

For the molecule `COc1cc(NC(=O)CSc2nc(C(=O)O)c[nH]2)c(OC)cc1Cl` [Compound I-27, 2-((2-((4-chloro-2,5-dimethoxyphenyl)amino)-2-oxoethyl)thio)-1H-imidazole-4-carboxylic acid], the IC50 lay in the range of 0.2 to 10 µM.

In the case of `COc1cc(NC(=O)CSc2nc(C(=O)O)c[nH]2)cc(OC)c1` [Compound I-25, 2-((2-((3,5-dimethoxyphenyl)amino)-2-oxoethyl)thio)-1H-imidazole-4-carboxylic acid], the half-maximal inhibitory concentration (IC50) lay within 0.2 to 10 µM.

As to `O=C(CSc1nc(C(=O)O)c[nH]1)Nc1ccc(N2CCOCC2)cc1` [Compound I-24, 2-((2-((4-morpholinophenyl)amino)-2-oxoethyl)thio)-1H-imidazole-4-carboxylic acid], the concentration for half-maximal inhibition (IC50) was over 10 µM.

Take `COc1ccc(NC(=O)CSc2nc(C(=O)O)c[nH]2)cc1OC` [Compound I-3, 2-((2-((3,4-dimethoxyphenyl)amino)-2-oxoethyl)thio)-1H-imidazole-4-carboxylic acid]: the 50% inhibitory concentration (IC50) is under 0.2 µM.

`O=C(CSc1nc(C(=O)O)c[nH]1)Nc1c(F)cccc1F` [Compound I-13, 2-((2-((2,6-difluorophenyl)amino)-2-oxoethyl)thio)-1H-imidazole-4-carboxylic acid]: the concentration for half-maximal inhibition (IC50) was over 10 µM.

Take `CNC(=O)c1c[nH]c(SCC(=O)Nc2ccc(OC)c(OC)c2)n1` [Compound I-2, 2-((2-((3,4-dimethoxyphenyl)amino)-2-oxoethyl)thio)-N-methyl-1H-imidazole-4-carboxamide]: the IC50 was 0.2 to 10 µM.

On to `COc1ccc(NC(=O)CSc2nc(C(N)=O)c[nH]2)cc1OC` [Compound I-1, 2-((2-((3,4-dimethoxyphenyl)amino)-2-oxoethyl)thio)-1H-imidazole-4-carboxamid], for which the IC50 is under 0.2 µM.

As for `Cc1cccc(NC(=O)CSc2nc(C(=O)O)c[nH]2)c1C` [Compound I-19, 2-((2-((2,3-dimethylphenyl)amino)-2-oxoethyl)thio)-1H-imidazole-4-carboxylic acid], the IC50 was over 10 µM.

As to `COc1ccc(CNC(=O)CSc2nc(C(=O)O)c[nH]2)cc1` [Compound I-37, 2-((2-((4-methoxybenzyl)amino)-2-oxoethyl)thio)-1H-imidazole-4-carboxylic acid], the IC50 was in the range of 0.2 to 10 µM.

For the molecule `CCOC(=O)c1c[nH]c(SCC(=O)Nc2ccc(OC)c(OC)c2)n1` [Compound I-6, ethyl 2-((2-((3,4-dimethoxyphenyl)amino)-2-oxoethyl)thio)-1H-imidazole-4-carboxylate], the IC50 was under 0.2 µM.

Turning to `O=C(CSc1nc(C(=O)O)c[nH]1)Nc1ccc(Br)cc1` [Compound I-23, 2-((2-((4-bromophenyl)amino)-2-oxoethyl)thio)-1H-imidazole-4-carboxylic acid], the IC50 lay in the range of 0.2 to 10 µM.

For the molecule `Cc1ccc(NC(=O)CSc2nc(C(=O)O)c[nH]2)cc1C` [Compound I-31, 2-((2-((3,4-dimethylphenyl)amino)-2-oxoethyl)thio)-1H-imidazole-4-carboxylic acid], the concentration for half-maximal inhibition (IC50) was over 10 µM.

With `COc1ccc(NC(=O)CSc2nc(C(=O)O)c[nH]2)cc1C#N` [Compound I-33, 2-((2-((3-cyano-4-methoxyphenyl)amino)-2-oxoethyl)thio)-1H-imidazole-4-carboxylic acid], the IC50 is under 0.2 µM.

Regarding `COc1cc(NC(=O)CSc2nc(C(=O)O)c[nH]2)ccc1Cl` [Compound I-14, 2-((2-((4-chloro-3-methoxyphenyl)amino)-2-oxoethyl)thio)-1H-imidazole-4-carboxylic acid], the IC50 was under 0.2 µM.

As to `COc1ccc(CNC(=O)CSc2nc(C(=O)O)c[nH]2)cc1OC` [Compound I-32, 2-((2-((3,4-dimethoxybenzyl)amino)-2-oxoethyl)thio)-1H-imidazole-4-carboxylic acid], the IC50 lay within 0.2 to 10 µM.

For the molecule `COc1ccc(NC(=O)CSc2nc(/C(N)=N/O)c[nH]2)cc1OC` [Compound I-5, (Z)-N-(3,4-dimethoxyphenyl)-2-((4-(N′-hydroxycarbamimidoyl)-1H-imidazol-2-yl)thio)acetamide], the IC50 is under 0.2 µM.

On to `COc1ccc(NC(=O)CSc2nc(-c3nnn[nH]3)c[nH]2)cc1OC` [Compound I-28, 2-((4-(1H-tetrazol-5-yl)-1H-imidazol-2-yl)thio)-N-(3,4-dimethoxyphenyl)acetamide], for which the IC50 was under 0.2 µM.

For `COc1ccc(NC(=O)CSc2nc(C(=O)OCC(O)CO)c[nH]2)cc1OC` (stereo not drawn) [Compound I-30, 2,3-dihydroxypropyl 2-((2-((3,4-dimethoxyphenyl)amino)-2-oxoethyl)thio)-1H-imidazole-4-carboxylate], the IC50 was under 0.2 µM.

Take `O=C(CSc1nc(C(=O)O)c[nH]1)NCc1cccc(Br)c1` [Compound I-11, 2-((2-((3-bromobenzyl)amino)-2-oxoethyl)thio)-1H-imidazole-4-carboxylic acid]: the IC50 was over 10 µM.

Turning to `COc1ccc(NC(=O)CSc2nc(C(=O)O)c[nH]2)c(OC)c1OC` [Compound I-26, 2-((2-oxo-2-((2,3,4-trimethoxyphenyl)amino)ethyl)thio)-1H-imidazole-4-carboxylic acid], the concentration for half-maximal inhibition (IC50) was over 10 µM.

Consider `O=C(CSc1nc(C(=O)O)c[nH]1)NCc1ccc(Cl)cc1` [Compound I-22, 2-((2-((4-chlorobenzyl)amino)-2-oxoethyl)thio)-1H-imidazole-4-carboxylic acid], for which the 50% inhibitory concentration (IC50) was over 10 µM.

In the case of `COc1ccc(NC(=O)CSc2nc(C(=O)O)c[nH]2)cc1Br` [Compound I-34, 2-((2-((3-bromo-4-methoxyphenyl)amino)-2-oxoethyl)thio)-1H-imidazole-4-carboxylic acid], the IC50 was under 0.2 µM.

`O=C(CSc1nc(C(=O)O)c[nH]1)Nc1c(Cl)cccc1Cl` [Compound I-18, 2-((2-((2,6-dichlorophenyl)amino)-2-oxoethyl)thio)-1H-imidazole-4-carboxylic acid]: the 50% inhibitory concentration (IC50) was over 10 µM.

Turning to `COc1ccc(Br)cc1NC(=O)CSc1nc(C(=O)O)c[nH]1` [Compound I-36, 2-((2-((5-bromo-2-methoxyphenyl)amino)-2-oxoethyl)thio)-1H-imidazole-4-carboxylic acid], the half-inhibitory concentration (IC50) was in the range of 0.2 to 10 µM.

For the molecule `COc1ccc(NC(=O)CSc2nc(C(=O)O)c[nH]2)c(OC)c1F` [Compound I-9, 2-((2-((3-fluoro-2,4-dimethoxyphenyl)amino)-2-oxoethyl)thio)-1H-imidazole-4-carboxylic acid], the 50% inhibitory concentration (IC50) is over 10 µM.
